From patent publication US12594293B2, “Use of 6-thio-dG to treat therapy-resistant telomerasepositive pediatric brain tumors” (The Board of Regents of The University of Texas System, priority 2018, dated 2026)

What was measured:
[1] = tested on: CCHMC-DIPG-1 cells; assay: Apoptosis, cleaved caspase-3; format: cell-based, human; details: 3 μM for 4 or 7 days; data not shown
Protocol: (§1) Immunofluorescence and telomere FISH assay. Cells were fixed with 4% paraformaldehyde (PFA) for 15 minutes. Cells were then washed, permeabilized with 0.5% Triton-X-100 in PBS, blocked with 5% donkey serum and 0.3% Triton X-100 in TBS and incubated with primary antibodies against γH2A.X (1:500, rabbit), or cleaved caspase-3 (1:400, rabbit) (Cell Signaling); and/or TRF2 (1:200) (Mouse; NOVUS), as applicable, for overnight followed by TBST wash (×3) next day. Corresponding secondary antibodies were added (Alexa-Fluor 488- or 594-conjugated donkey anti-rabbit, or anti-mouse (1:500) (Jackson ImmunoResearch) for 1 hour and washed with TBS (×3) before mounting. For telomere-FISH, fixed and permeabilized cells were dehydrated with a graded ethanol concentration series, air-dried and covered with hybridization solution (70% formamide, 0.5% Blocking Reagent (Roche Diagnostics) diluted in 100 mM maleic acid and 150 mM sodium chloride, and 10 mM Tris (pH 7.5)) with 300 ng/mL PNA(CCCTAA)3-Cy3 (SEQ ID NO: 1) (Biosynthesis, USA), and denatured for 6 minutes at 84° C. followed by hybridization for at least two hours at room temperature. Cells were washed three times with 70% formamide and 10 mM Tris (pH 7.5) and three times with TBS. […]
(§2) Western blot. […] Band intensities were quantified using ImageJ software (Ver. 1.49u, NIH, USA).

[2] = tested on: MB004 cells; assay: Apoptosis, cleaved caspase-3; format: cell-based, human; details: 3 μM for 4 or 7 days; data not shown
Protocol: as §1, §2

[3] = tested on: ATM and ATR signaling pathways in HFF cells; assay: Western blot of ATR-T1989 and ATM-S1981 phosphorylation; format: cell-based, human; details: 3 μM, day 1 to 3
Protocol: (§3) Western blot. Western blot was performed as described previously (22). Antibodies used were against ATMS1981P (R & D Systems); ATM (SIGMA); ATR-T1989P (GeneTex); and ATR, CHK1-S345P, CHK1, CHK2-T68P, CHK2, Cleaved Caspase-3, and β-actin (Cell Signaling). Bands were visualized using ECL with Azurec500 imaging system (Azure Biosystems). Band intensities were quantified using ImageJ software (Ver. 1.49u, NIH, USA).

[4] = tested on: ATM and ATR signaling pathways in HFF+hTERT cells; assay: as above; format: cell-based, human; details: 3 μM, day 1 to 3
Protocol: as §3

[5] = tested on: R0315-GBM; assay: Cell growth assay (viable cell count, trypan blue exclusion); format: cell-based; details: Homo sapiens, 168 h, 6-thio-dG treatment for 7 days
Protocol: (§4) Cell growth and sphere formation assay. After dissociating primary neurospheres by TrypLE express (Gibco), single cells were seeded in respective growth media in 6-well plates and were incubated for one week at varying concentrations (0.5 to 10 μM) of 6-thio-dG or DMSO. Fresh culture media were added every three days. Viable cell numbers were determined by trypan blue exclusion method. For sphere formation assay, MB004 single cells were seeded in limited dilution (10 cells/well in 96-well plate) and treated with DMSO or 6-thio-dG. Sphere formation was monitored by microscopy.

[6] = tested on: HeLa; assay: as above; format: cell-based; details: Homo sapiens, 168 h, 6-thio-dG treatment for 7 days
Protocol: as §4

[7] = tested on: CCHMC-DIPG-1; assay: as above; format: cell-based; details: Homo sapiens, 168 h, 6-thio-dG treatment for 7 days
Protocol: as §4

[8] = tested on: SU-DIPG-VI; assay: as above; format: cell-based; details: Homo sapiens, 168 h, 6-thio-dG treatment for 7 days
Protocol: as §4

[9] = tested on: HFF cells; assay: Immunofluorescence and telomere FISH (TIF) assay; format: cell-based, human
Protocol: (§5) Immunofluorescence and telomere FISH assay. Cells were fixed with 4% paraformaldehyde (PFA) for 15 minutes. Cells were then washed, permeabilized with 0.5% Triton-X-100 in PBS, blocked with 5% donkey serum and 0.3% Triton X-100 in TBS and incubated with primary antibodies against γH2A.X (1:500, rabbit), or cleaved caspase-3 (1:400, rabbit) (Cell Signaling); and/or TRF2 (1:200) (Mouse; NOVUS), as applicable, for overnight followed by TBST wash (×3) next day. Corresponding secondary antibodies were added (Alexa-Fluor 488- or 594-conjugated donkey anti-rabbit, or anti-mouse (1:500) (Jackson ImmunoResearch) for 1 hour and washed with TBS (×3) before mounting. For telomere-FISH, fixed and permeabilized cells were dehydrated with a graded ethanol concentration series, air-dried and covered with hybridization solution (70% formamide, 0.5% Blocking Reagent (Roche Diagnostics) diluted in 100 mM maleic acid and 150 mM sodium chloride, and 10 mM Tris (pH 7.5)) with 300 ng/mL PNA(CCCTAA)3-Cy3 (SEQ ID NO: 1) (Biosynthesis, USA), and denatured for 6 minutes at 84° C. followed by hybridization for at least two hours at room temperature. Cells were washed three times with 70% formamide and 10 mM Tris (pH 7.5) and three times with TBS. Finally, they were embedded with mounting media with DAPI (Vector Laboratories H1200).

[10] = tested on: HFF+hTERT cells; assay: Immunofluorescence and telomere FISH (TIF) assay; format: cell-based, human
Protocol: as §5

[11] = tested on: MB004 cells; assay: Immunofluorescence and telomere FISH (TIF) assay; format: cell-based, human; details: 3 μM 2 days, then 3 days continuous or discontinuous treatment
Protocol: as §5

[12] = tested on: HFF cells; assay: Apoptosis, cleaved caspase-3 (IF / immunoblot); format: cell-based, human; details: 3 μM for 4 or 7 days
Protocol: as §5, §3

[13] = tested on: HFF+hTERT cells; assay: Apoptosis, cleaved caspase-3 (IF / immunoblot); format: cell-based, human; details: 3 μM for 4 or 7 days
Protocol: as §5, §3

[14] = tested on: HeLa cells; assay: Apoptosis, cleaved caspase-3 (IF / immunoblot); format: cell-based, human; details: 3 μM for 4 or 7 days
Protocol: as §5, §3

## Nc1nc2c(ncn2[C@H]2C[C@H](O)[C@@H](CO)O2)c(=S)[nH]1 [6-thio-dG, 6-thio-2′-deoxyguanosine]
[1]
  cleaved caspase-3 signal (apoptosis): increase in cleaved caspase-3 signal
[2]
  cleaved caspase-3 signal (apoptosis): increase in cleaved caspase-3 signal
[3]
  ATR / ATM pathway activation: activation of the ATR pathway
[4]
  ATR-T1989 and ATM-S1981 phosphorylation: Both ATM and ATR signaling pathways were engaged
[5]
  IC50: 1250 nM
[6]
  IC50: 143 nM
[7]
  IC50: 655 nM
[8]
  IC50: 772 nM
[9]; 3 μM, after 2 or 5 days treatment
  TIF formation (cells with TIFs): less than 3%
[9]; 3 days after drug withdrawal
  TIFs after drug withdrawal: completely disappeared
[10]; 3 μM 2 days, then 3 days after drug withdrawal
  cells TIF-positive: ~31%
[10]; 3 μM, 5 days continuous treatment
  cells TIF-positive: ~34%
[10]; 3 μM, after two days
  number of cells with TIFs: ~25%
[10]; 3 μM, from day 1 to day 3
  number of TIFs per cell and number of cells with TIFs: markedly increased
[11]
  TIF formation: sustained TIF formation
[12]
  apoptosis (cleaved caspase-3): did not show any evidence of apoptosis
[13]
  apoptosis (cleaved caspase-3): did not show any evidence of apoptosis
[14]
  cleaved caspase-3 signal (apoptosis): increase in cleaved caspase-3 signal
